Our source for the IC50 and inhibition values is US7135466B2 (Kirin Beer Kabushiki Kaisha, priority 1999, dated 2006).

The target of one test is T1, PDGF-Ra (Homo sapiens, UniProt P16234).
T1 construct: host or cells: G-292 human osteosarcoma cells
The experiment in a line: Inhibitory activity against PDGF-Ra phosphorylation by PDGF-AA stimulation using G292. Format: cell-based. Particulars: for IC50: Pharmacological Test Example 1, > means inhibition at indicated concentration not more than 50%, < and << not less than 50%, read-out: PDGF (E) IC50. The method, boiled down:
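Read-out: A450 from a sandwich ELISA (PY-20 capture, anti-PDGF-Ra detection, peroxidase colour) of lysates from G-292 cells given compound for 1 hr at 37 °C before a 5 min challenge with PDGF-AA at 50 ng/ml.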

In a further test the target is T2, c-kit (Homo sapiens, UniProt P10721).
T2 construct: MO7e (human megakaryocytic leukemia cell line) which had been arrested for 20 hr; endogenous in cells; host or cells: MO7e human megakaryocytic leukemia cell line
The experiment in a line: Inhibitory activity against c-kit autophosphorylation (MO7e cells, h-SCF). Particulars: for IC50: MO7e cells, h-SCF 50 ng/ml, read-out: c-kit IC50; for inhibition at 1 µM: Mo7e, figure in parentheses in −( ), at 1000 nM. The format is cell-based. The method in brief: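 MO7e human megakaryocytic leukemia cells, arrested 20 hr, treated with compound 1 hr, then stimulated with 50 ng/ml h-SCF for 5 min and lysed. Lysates captured on immobilized anti-phosphotyrosine antibody, detected with anti-c-kit primary and HRP secondary antibody; absorbance at 450 nm.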

Each structure is given as a SMILES string.

T2 sequence (P10721 26-976): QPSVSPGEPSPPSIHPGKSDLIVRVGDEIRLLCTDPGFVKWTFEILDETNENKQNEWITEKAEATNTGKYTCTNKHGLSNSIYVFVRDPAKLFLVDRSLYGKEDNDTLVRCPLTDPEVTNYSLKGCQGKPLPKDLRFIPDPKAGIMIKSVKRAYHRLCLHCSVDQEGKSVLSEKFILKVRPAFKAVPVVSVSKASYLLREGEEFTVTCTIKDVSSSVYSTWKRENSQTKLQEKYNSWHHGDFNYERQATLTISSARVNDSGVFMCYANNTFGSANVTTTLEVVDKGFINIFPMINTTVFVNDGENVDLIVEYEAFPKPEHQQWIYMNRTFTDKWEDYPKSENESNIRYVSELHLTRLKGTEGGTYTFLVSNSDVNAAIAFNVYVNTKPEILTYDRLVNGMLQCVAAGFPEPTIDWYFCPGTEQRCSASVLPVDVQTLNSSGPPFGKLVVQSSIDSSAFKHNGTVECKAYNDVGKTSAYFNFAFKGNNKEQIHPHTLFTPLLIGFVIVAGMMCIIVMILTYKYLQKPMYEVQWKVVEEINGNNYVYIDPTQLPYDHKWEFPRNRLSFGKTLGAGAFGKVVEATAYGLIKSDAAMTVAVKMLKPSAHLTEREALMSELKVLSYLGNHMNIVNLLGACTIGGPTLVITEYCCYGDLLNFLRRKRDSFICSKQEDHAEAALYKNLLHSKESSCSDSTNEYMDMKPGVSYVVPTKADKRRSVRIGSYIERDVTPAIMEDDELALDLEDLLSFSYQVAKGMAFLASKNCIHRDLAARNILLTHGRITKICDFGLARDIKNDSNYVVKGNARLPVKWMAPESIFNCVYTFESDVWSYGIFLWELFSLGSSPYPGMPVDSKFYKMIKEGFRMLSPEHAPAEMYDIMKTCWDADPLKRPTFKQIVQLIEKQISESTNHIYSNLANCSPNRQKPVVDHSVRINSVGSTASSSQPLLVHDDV
T1 sequence (P16234 24-1089): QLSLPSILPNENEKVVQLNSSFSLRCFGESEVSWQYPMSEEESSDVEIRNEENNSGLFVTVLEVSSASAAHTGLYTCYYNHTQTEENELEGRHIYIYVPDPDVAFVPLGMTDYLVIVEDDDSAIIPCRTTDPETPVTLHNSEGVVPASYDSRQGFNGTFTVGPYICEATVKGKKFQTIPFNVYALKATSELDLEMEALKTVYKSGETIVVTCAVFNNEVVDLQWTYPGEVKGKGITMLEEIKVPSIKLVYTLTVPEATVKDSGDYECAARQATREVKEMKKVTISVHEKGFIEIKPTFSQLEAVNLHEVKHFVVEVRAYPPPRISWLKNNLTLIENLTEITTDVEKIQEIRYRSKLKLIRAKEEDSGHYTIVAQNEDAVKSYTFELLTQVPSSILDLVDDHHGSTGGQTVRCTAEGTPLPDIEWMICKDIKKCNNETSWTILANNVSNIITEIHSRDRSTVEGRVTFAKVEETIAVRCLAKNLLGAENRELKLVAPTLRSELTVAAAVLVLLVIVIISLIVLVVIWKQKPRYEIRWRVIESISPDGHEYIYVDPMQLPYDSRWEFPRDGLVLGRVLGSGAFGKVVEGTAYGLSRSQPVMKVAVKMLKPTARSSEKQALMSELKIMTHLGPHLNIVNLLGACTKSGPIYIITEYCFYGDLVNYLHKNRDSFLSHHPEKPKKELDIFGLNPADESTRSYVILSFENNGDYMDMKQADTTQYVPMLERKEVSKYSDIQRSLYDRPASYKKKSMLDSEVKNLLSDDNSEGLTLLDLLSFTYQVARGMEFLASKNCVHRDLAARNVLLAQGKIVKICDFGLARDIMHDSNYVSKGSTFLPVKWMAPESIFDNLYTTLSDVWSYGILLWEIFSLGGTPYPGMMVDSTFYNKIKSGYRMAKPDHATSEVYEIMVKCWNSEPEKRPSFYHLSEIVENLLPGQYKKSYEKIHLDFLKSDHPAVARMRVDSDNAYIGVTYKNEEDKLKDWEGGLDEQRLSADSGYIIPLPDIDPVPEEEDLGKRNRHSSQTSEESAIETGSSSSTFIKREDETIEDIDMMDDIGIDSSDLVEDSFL

One may read the IC50 as the concentration needed to halve the response being measured. For `COc1cc2nccc(Oc3ccc(NC(=O)OC(C)c4cccc(Br)c4)c(C)c3C)c2cc1OC` (stereo not shown) [Example 118, 1-(3-Bromophenyl)ethyl N-{4-[(6,7-dimethoxy-4-quinolyl)oxy]-2,3-dimethylphenyl}carbamate], the half-maximal inhibitory concentration (IC50) at PDGF-Ra was 33 nM; on c-kit it was 746 nM.
As usually defined, the inhibition is the drop in the measured response relative to a control, in per cent. Regarding `COc1cc2nccc(Oc3cc(C)c(NC(=O)OC(C)c4cccc(Br)c4)cc3C)c2cc1OC` (stereo not shown) [Example 119, 1-(3-Bromophenyl)ethyl N-{4-[(6,7-dimethoxy-4-quinolyl)oxy]-2,5-dimethylphenyl}carbamate], the half-maximal inhibitory concentration (IC50) on PDGF-Ra is more than 100 nM. Besides, the inhibition at 1 µM on c-kit was 31%.
`COc1cc2ncnc(Oc3ccc(NC(=O)OC(C)c4cccc(Br)c4)cc3)c2cc1OC` (stereo not shown) [Example 120, 1-(3-Bromophenyl)ethyl N-{4-[(6,7-dimethoxy-4-quinazolinyl)oxy]phenyl}carbamate]: the figures for the IC50 at PDGF-Ra and on c-kit were 13 nM and 505 nM, respectively.
`COc1cc2ncnc(Oc3ccc(NC(=O)OC(C)c4cccc(Br)c4)c(Cl)c3)c2cc1OC` (stereo not shown) [Example 121, 1-(3-Bromophenyl)ethyl N-{2-chloro-4-[(6,7-dimethoxy-4-quinazolinyl)oxy]phenyl}carbamate]: at PDGF-Ra, the 50% inhibitory concentration (IC50) was 48 nM. At c-kit, the inhibition at 1 µM is 17%.
Turning to `COc1cc2nccc(Oc3ccc(NC(=O)OC(C)c4ccccc4F)cc3)c2cc1OC` (stereo not shown) [Example 122, 1-(2-Fluorophenyl)ethyl N-{4-[(6,7-dimethoxy-4-quinolyl)oxy]phenyl}carbamate], the 50% inhibitory concentration (IC50) is 11 nM on PDGF-Ra and 821 nM at c-kit.
Consider `COc1cc2nccc(Oc3ccc(NC(=O)OC(C)c4ccccc4F)c(C)c3C)c2cc1OC` (stereo not shown) [Example 123, 1-(2-Fluorophenyl)ethyl N-{4-[(6,7-dimethoxy-4-quinolyl)oxy]-2,3-dimethylphenyl}carbamate], for which the 50% inhibitory concentration (IC50) is less than 10 nM on PDGF-Ra and 207 nM at c-kit.
Consider `COc1cc2nccc(Oc3cc(C)c(NC(=O)OC(C)c4ccccc4F)cc3C)c2cc1OC` (stereo not shown) [Example 124, 1-(2-Fluorophenyl)ethyl N-{4-[(6,7-dimethoxy-4-quinolyl)oxy]-2,5-dimethylphenyl}carbamate], for which, on PDGF-Ra, the half-maximal inhibitory concentration (IC50) is 42 nM. Also, the inhibition at 1 µM at c-kit worked out at 39%.
As to `COc1cc2ncnc(Oc3ccc(NC(=O)OC(C)c4ccccc4F)cc3)c2cc1OC` (stereo not shown) [Example 125], the values for the half-maximal inhibitory concentration (IC50) at PDGF-Ra and at c-kit were less than 10 nM and 671 nM, respectively.
Consider `COc1cc2ncnc(Oc3ccc(NC(=O)OC(C)c4ccccc4F)c(Cl)c3)c2cc1OC` (stereo not shown) [Example 126, 1-(2-Fluorophenyl)ethyl N-{2-chloro-4-[(6,7-dimethoxy-4-quinazolinyl)oxy]phenyl}carbamate], for which the half-inhibitory concentration (IC50) at PDGF-Ra worked out at 19 nM. Also, on c-kit, the inhibition at 1 µM is 10%.
Take `CCOc1ccccc1C(C)OC(=O)Nc1ccc(Oc2ccnc3cc(OC)c(OC)cc23)cc1` (stereo not shown) [Example 127, 1-(2-Ethoxyphenyl)ethyl N-{4-[(6,7-dimethoxy-4-quinolyl)oxy]phenyl}carbamate]: the results for the IC50 at PDGF-Ra and on c-kit were 16 nM and 283 nM, respectively.
For `CCOc1ccccc1C(C)OC(=O)Nc1ccc(Oc2ccnc3cc(OC)c(OC)cc23)c(C)c1C` (stereo not shown) [Example 128, 1-(2-Ethoxyphenyl)ethyl N-{4-[(6,7-dimethoxy-4-quinolyl)oxy]-2,3-dimethylphenyl}carbamate] the same measures were 26 nM and 375 nM.
As for `CCOc1ccccc1C(C)OC(=O)Nc1cc(C)c(Oc2ccnc3cc(OC)c(OC)cc23)cc1C` (stereo not shown) [Example 129, 1-(2-Ethoxyphenyl)-ethyl N-{4-[(6,7-dimethoxy-4-quinolyl)oxy]-2,5-dimethylphenyl}carbamate], the half-inhibitory concentration (IC50) at PDGF-Ra amounted to 64 nM; at c-kit, 732 nM.
As for `CCOc1ccccc1C(C)OC(=O)Nc1ccc(Oc2ncnc3cc(OC)c(OC)cc23)cc1` (stereo not shown) [Example 130, 1-(2-Ethoxyphenyl)ethyl N-{4-[(6,7-dimethoxy-4-quinazolinyl)oxy]phenyl}carbamate], the half-inhibitory concentration (IC50) is less than 10 nM at PDGF-Ra and 714 nM on c-kit.
`CCOc1ccccc1C(C)OC(=O)Nc1ccc(Oc2ncnc3cc(OC)c(OC)cc23)cc1Cl` (stereo not shown) [Example 131, 1-(2-Ethoxyphenyl)ethyl N-{-chloro-4-[(6,7-dimethoxy-4-quinazolinyl)oxy]phenyl}carbamate]: the IC50 at PDGF-Ra worked out at 38 nM. The inhibition at 1 µM on c-kit worked out at 40%.
`COc1cc2nccc(Oc3ccc(NC(=O)OC(C)c4ccc(C)cc4)cc3)c2cc1OC` (stereo not shown) [Example 132, 1-(4-Methylphenyl)ethyl N-{4-[(6,7-dimethoxy-4-quinolyl)oxy]phenyl}carbamate]: the 50% inhibitory concentration (IC50) is 26 nM at PDGF-Ra and 301 nM at c-kit.
With `COc1cc2nccc(Oc3ccc(NC(=O)OC(C)c4ccc(C)cc4)c(C)c3C)c2cc1OC` (stereo not shown) [Example 133, 1-(4-Methylphenyl)ethyl N-{4-[(6,7-dimethoxy-4-quinolyl)oxy]-2,3-dimethylphenyl}carbamate], the IC50 was found to be 26 nM at PDGF-Ra and 206 nM at c-kit.
As for `COc1cc2nccc(Oc3cc(C)c(NC(=O)OC(C)c4ccc(C)cc4)cc3C)c2cc1OC` (stereo not shown) [Example 134, 1-(4-Methylphenyl)ethyl N-{4-[(6,7-dimethoxy-4-quinolyl)oxy]-2,5-dimethylphenyl}carbamate], the inhibition at 0.1 µM at PDGF-Ra (G292, figure in parentheses in >100( ), at 100 nM, read-out: PDGF (E) inhibition (%) at 100 nM) is 49%. Besides, the concentration for half-maximal inhibition (IC50) was more than 100 nM at PDGF-Ra and 944 nM on c-kit.
On to `COc1cc2ncnc(Oc3ccc(NC(=O)OC(C)c4ccc(C)cc4)cc3)c2cc1OC` (stereo not shown) [Example 135, 1-(4-Methylphenyl)ethyl N{4-[(6,7-dimethoxy-4-quinazolinyl)oxy]phenyl}carbamate], for which the figures for the IC50 at PDGF-Ra and on c-kit were 18 nM and 475 nM, respectively.
In the case of `COc1cc2ncnc(Oc3ccc(NC(=O)OC(C)c4ccc(C)cc4)c(Cl)c3)c2cc1OC` (stereo not shown) [Example 136, 1-(4-Methylphenyl)ethyl N-{2-chloro-4-[(6,7-dimethoxy-4-quinazolinyl)oxy]phenyl}carbamate], at PDGF-Ra, the 50% inhibitory concentration (IC50) was 43 nM. Further, on c-kit, the inhibition at 1 µM came to 7%.
With `COc1cc2nccc(Oc3ccc(NC(=O)OCCSc4ccc(C)cc4)cc3)c2cc1OC` [Example 137, 3-[(4-Methylphenyl)sulfanyl]ethyl N-{4-[(dimethoxy-4-quinolyl)oxy]-phenyl}carbamate], the figures for the IC50 on PDGF-Ra and at c-kit were less than 10 nM and 233 nM, respectively.
The corresponding values for `COc1cc2nccc(Oc3ccc(NC(=O)OCCSc4ccc(C)cc4)c(C)c3C)c2cc1OC` [Example 138, 3-[(4-Methylphenyl)sulfanyl]ethyl N-{4-[(6,7-dimethoxy-4-quinolyl)oxy]-2,3-dimethylphenyl}carbamate] are 17 nM and 74 nM.
The corresponding values for `COc1cc2ncnc(Oc3ccc(NC(=O)OCCSc4ccc(C)cc4)cc3)c2cc1OC` [Example 140] are less than 10 nM and 234 nM.
As to `COc1cc2ncnc(Oc3ccc(NC(=O)OCCSc4ccc(C)cc4)c(Cl)c3)c2cc1OC` [Example 141, 3-[(4-Methylphenyl)sulfanyl]ethyl N-{2-chloro-4-[(6,7-dimethoxy-4-quinazolinyl)oxy]phenyl}carbamate], the IC50 at PDGF-Ra came out at 36 nM. The inhibition at 1 µM at c-kit is 26%.
`COc1cc2nccc(Oc3ccc(NC(=O)OCCCOc4ccccc4F)cc3)c2cc1OC` [Example 142, 3-(2-Fluorophenoxy)propyl N-{4-[(6,7-dimethoxy-4-quinolyl)oxy]phenyl}carbamate]: the values for the 50% inhibitory concentration (IC50) at PDGF-Ra and at c-kit were less than 10 nM and less than 30 nM, respectively.
With `COc1cc2nccc(Oc3ccc(NC(=O)OCCCOc4ccccc4F)c(C)c3C)c2cc1OC` [Example 143, 3-(2-Fluorophenoxy)propyl N-{4-[(6,7-dimethoxy-4-quinolyl)oxy]-2,3-dimethylphenyl}carbamate], the IC50 at PDGF-Ra is less than 10 nM; on c-kit, less than 30 nM.
The corresponding values for `COc1cc2nccc(Oc3cc(C)c(NC(=O)OCCCOc4ccccc4F)cc3C)c2cc1OC` [Example 144, 3-(2-Fluorophenoxy)propyl N-{4-[(6,7-dimethoxy-4-quinolyl)oxy]-2,5-dimethylphenyl}carbamate] are 18 nM and 49 nM.
`COc1cc2ncnc(Oc3ccc(NC(=O)OCCCOc4ccccc4F)cc3)c2cc1OC` [Example 145, 3-(2-Fluorophenoxy) propyl N-{4-[(6,7-dimethoxy-4-quinazolinyl)oxy]phenyl}carbamate]: the figures for the half-inhibitory concentration (IC50) on PDGF-Ra and at c-kit were less than 10 nM and less than 30 nM, respectively.
The corresponding values for `COc1cc2ncnc(Oc3ccc(NC(=O)OCCCOc4ccccc4F)c(C)c3C)c2cc1OC` [Example 146, 3-(2-Fluorophenoxy)propyl N-{4-[(6,7-dimethoxy-4-quinazolinyl)oxy]-2,3-dimethylphenyl}carbamate] are 11 nM and 32 nM.
In the case of `COc1cc2nccc(Oc3ccc(NC(=O)OCCCOc4cccc(F)c4)cc3)c2cc1OC` [Example 147, 3-(3-Fluorophenoxy)propyl N-{4-[(6,7-dimethoxy-4-quinolyl)oxy]phenyl}carbamate], the concentration for half-maximal inhibition (IC50) on PDGF-Ra was 11 nM; on c-kit it was less than 30 nM.
As for `COc1cc2nccc(Oc3ccc(NC(=O)OCCCOc4cccc(F)c4)c(C)c3C)c2cc1OC` [Example 148, 3-(3-Fluorophenoxy)propyl N-{4-[(6,7-dimethoxy-4-quinolyl)oxy]-2,3-dimethylphenyl}carbamate], the half-maximal inhibitory concentration (IC50) at PDGF-Ra was less than 10 nM; at c-kit, less than 30 nM.
